In patent publication US9682994B2, “Inhibitors of retroviral replication” (The Scripps Research Institute, priority 2011, dated 2017):
“Also recorded” adds a separate entry of the source. Where two headings read alike, the source gives them in different places.

What was measured:
HIV-2 (ROD/A) = assay: Chronic HIV-2 replication in HeLa-CD4 cells, p24 ELISA; type: cell-based; conditions: p24, 7 days; read-out: EC50, chronic infection by HIV-2
From the text: Antigen p24 in the supernatant measured as in FIG. 5F, 7 days post-infection.

HIV-1 pNL4-3 [1] = assay: Viral RNA in chronically infected CEM SS cells; type: cell-based; conditions: 7 days treatment
Description: CEM SS cells chronically infected with pNL4-3 were treated with the indicated compounds for 7 days. Quantification of viral RNA was performed as in FIG. 1E.
(§1) Such an early time point rules out de novo infections. […] This conclusion was further supported by the fact that treatment of cells that were chronically infected, and therefore continuously shedding the virus (without incurring new infections, due to down-regulation of CD4 from the cell surface), reduced virus production to undetectable levels (FIG. 1F). […] Results were similar when viral release from cells treated for 60 days were measured by p24 enzyme-linked immunosorbent assay (ELISA) (FIG. 1G).

HIV-1 pNL4-3 [2] = assay: Chronically HIV-1 infected HeLa-CD4 cells, viral RNA by qRT-PCR / p24; type: cell-based
Description: FIG. 1G: p24 antigen quantification. Viral supernatants recovered from cells described in FIG. 1B, grown for 60 days, were assayed for their p24 antigen content using a sandwich ELISA kit. Error bars represent standard deviations.
First-strand cDNA from RNA for qPCR was prepared using […]™ first-strand cDNA kit (Invitrogen), following the manufacturer's instructions, using approximately 5 μg of RNA as starting material and random hexamers as first-strand primers. Quantitative PCR was performed with an aliquot of cDNA as template, using […]® 480 SYBR Green I Master (Roche) in a 20 μL reaction according to the manufacturer's instructions. […] The primers used were as follows: […]
as §1

CDK11 = CDK11 (Homo sapiens, UniProt P21127); assay: In vitro CDK11 kinase assay with 9G8 as substrate; type: biochemical
Description: To the mixture, 100 μM of ATP and 5 μCi of γ-^32P-ATP (3000 Ci/mmol 10 mCi/ml) were added to a final volume of 30 μl in kinase buffer. Following 30 min at 30° C., the reaction was terminated by addition of 6 μl of 6× SDS loading buffer. After boiling for 10 min, proteins were separated by SDS-PAGE. The gel was dried and visualized by autoradiography.

HIV-1 promoter = assay: Elongation from HIV-1 promoter by qRT-PCR in chronically infected HeLa cells; type: cell-based; conditions: dose-dependent
From the text: FIG. 3B: HIV-1 elongation from HIV-1 promoter measured by qPCR. […] All messages were normalized relative to GAPDH mRNA. The 100% value was arbitrarily assigned to the amounts of viral mRNA generated in the absence of compound, measured at 100 bp from start site. Right panel: Plotting of data obtained in left panel, setting each data point obtained with the 100 bp primer set at 100% and comparing to results obtained with 5.3 kb primer set.
For these studies, the amounts of viral RNA present at different distances from the promoter were measured using sets of oligonucleotide primer pairs specific to quantify transcripts made up to 100 bp, 5.3 kb or 8.5 kb from the transcription start site (FIG. 3A). It was observed that even in the absence of drug, elongation from the HIV-1 viral promoter is not very efficient. In the presence of DMSO alone only 30% of 5.3 kb long transcripts and 6% of 8.5 kb long transcripts were produced (FIG. 3B—left panel).

[3] = Hepatic microsomal stability, mouse; type: in vitro ADME; conditions: 1 μM, 0.2-1 mg/ml microsomes, NADPH 1 mM
From the text: In vitro studies compared murine and human hepatic microsomes (150 donor mixed male/female pool).

[4] = system: RNAPII occupancy of the HIV promoter and ORF; assay: ChIP of RNAPII on HIV promoter and ORF; type: cell-based, HIV-1; conditions: 4 days treatment
Description: FIG. 3C: ChIP assay of the HIV promoter. […] Lysates were sonicated, the crosslinks were reversed and RNAPII was immunoprecipitated. DNA was measured by qPCR using the indicated set of primers. ChIP values are represented as percentages of input. Error bars, ±s.d. (n=3). *P<0.05; **P<0.01 (unpaired t-test).
Cells were fixed with formaldehyde (1% [vol/vol]) to crosslink the chromatin and incubated at room temperature for 10 min. Crosslinking was arrested by adding glycine[0.125 M] and incubated for an additional 5 min at room temperature. Cells were then pelleted, washed twice with phosphate-buffered saline, ressuspended in SDS lysis buffer, and incubated 10 min on ice. All solutions used prior to the collection of chromatin-antibody complexes contained protease and phosphatase inhibitor cocktail. Cell lysates were sonicated 4 times for 10 s bursts on ice. The sheared chromatin was diluted by the addition of 3 volumes of ChIP dilution buffer (0.01% SDS, 1.1% Triton X-100, 1.2 mM EDTA, 16.7 mM Tris-HCl (pH 8.1), 167 mM NaCl) and pre-cleared with salmon sperm DNA-protein A/G agarose slurry for 2 h. […] The relative proportions of co-immunoprecipitated DNA fragments were determined on the basis of the threshold cycle (CT) for each PCR product. […]

Chain of CDK11 (P21127 whole entry): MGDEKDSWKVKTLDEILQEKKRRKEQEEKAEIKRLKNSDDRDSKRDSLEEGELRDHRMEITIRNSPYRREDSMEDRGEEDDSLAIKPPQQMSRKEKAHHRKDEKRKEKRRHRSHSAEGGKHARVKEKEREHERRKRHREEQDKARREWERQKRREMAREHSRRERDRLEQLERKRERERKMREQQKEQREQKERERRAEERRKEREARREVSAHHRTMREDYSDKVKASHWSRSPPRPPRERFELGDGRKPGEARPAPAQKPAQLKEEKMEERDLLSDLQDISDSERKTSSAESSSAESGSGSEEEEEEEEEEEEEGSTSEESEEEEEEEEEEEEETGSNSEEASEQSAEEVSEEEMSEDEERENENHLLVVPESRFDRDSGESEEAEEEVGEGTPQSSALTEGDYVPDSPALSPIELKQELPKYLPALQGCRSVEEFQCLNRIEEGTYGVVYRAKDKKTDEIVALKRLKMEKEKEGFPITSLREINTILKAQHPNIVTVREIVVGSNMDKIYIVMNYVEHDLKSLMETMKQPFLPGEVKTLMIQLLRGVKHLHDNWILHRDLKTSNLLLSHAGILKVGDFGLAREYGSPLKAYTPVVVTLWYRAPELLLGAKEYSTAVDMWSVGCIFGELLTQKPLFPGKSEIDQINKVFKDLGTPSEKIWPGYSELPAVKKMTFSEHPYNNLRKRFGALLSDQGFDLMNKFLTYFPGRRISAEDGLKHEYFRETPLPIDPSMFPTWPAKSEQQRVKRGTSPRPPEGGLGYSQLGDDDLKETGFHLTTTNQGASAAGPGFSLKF

CN(C)[C@H]1C[C@@]23CC[C@@]4(O2)C(=CC[C@]2(C)C(c5ccc6ccncc6c5)=CC[C@H]24)C=C3[C@@H](O)[C@@H]1O [dCA, didehydro-Cortistatin A]
EC50 (HIV-2 (ROD/A)): ~1.7 nM | viral RNA levels in chronically infected CEM SS (HIV-1 pNL4-3 [1]): reduced viral RNA levels | inhibition of viral replication (HIV-1 pNL4-3 [2]; chronically infected cells grown in 100 nM for longer periods): 99% | EC50 (HIV-1 pNL4-3 [2]; read-out: EC50 for abrogating chronic HIV infection): < 0.1 nM | EC50 (HIV-1 pNL4-3 [2]; treatment for 10 or 60 days, read-out: EC50, reduction of viral cellular RNA levels): ≥ 0.1 nM | EC90 (HIV-1 pNL4-3 [2]; treatment for 10 or 60 days, read-out: EC90, reduction of viral cellular RNA levels): < 10 nM | in vitro CDK11 kinase activity (CDK11): unable to block; also recorded: did not inhibit | production of longer viral RNA species (elongation) (HIV-1 promoter): further decreased the production of longer viral RNA species | T1/2 hepatic microsomes, Mouse [3]: 181 min | association of RNAPII with the HIV promoter and ORF [4]: significantly decreased
